The data set is described as follows: Protonation constant (Proton-ligand formation constant) was determined. Format: ADME.

`O=[N+]([O-])c1ccc(S(=O)(=O)Nc2ccccc2)cc1` gave a pKa of 6.66.

For orientation: pKa means the negative logarithm of the acid dissociation constant.
